From patent publication US20240368168A1, “SARM1 ENZYME ACTIVITY INHIBITOR AND APPLICATION THEREOF” (ARTIVILA BIOPHARMA, priority 2021, published 2024)

What was measured:
dN-SARM1 protein = target: T1, dN-SARM1 protein (Homo sapiens, UniProt Q6SZW1); test: In vitro biochemical assay for inhibiting SARM1 enzymatic activity (IC50), PC6 fluorescence method; conditions: 50 μM NAD, 50 μM PC6, 50 μM NMN activator
T1 construct: the N-terminal mitochondrial localization signal peptide of SARM1 was removed
T1 sequence (Q6SZW1 28-724): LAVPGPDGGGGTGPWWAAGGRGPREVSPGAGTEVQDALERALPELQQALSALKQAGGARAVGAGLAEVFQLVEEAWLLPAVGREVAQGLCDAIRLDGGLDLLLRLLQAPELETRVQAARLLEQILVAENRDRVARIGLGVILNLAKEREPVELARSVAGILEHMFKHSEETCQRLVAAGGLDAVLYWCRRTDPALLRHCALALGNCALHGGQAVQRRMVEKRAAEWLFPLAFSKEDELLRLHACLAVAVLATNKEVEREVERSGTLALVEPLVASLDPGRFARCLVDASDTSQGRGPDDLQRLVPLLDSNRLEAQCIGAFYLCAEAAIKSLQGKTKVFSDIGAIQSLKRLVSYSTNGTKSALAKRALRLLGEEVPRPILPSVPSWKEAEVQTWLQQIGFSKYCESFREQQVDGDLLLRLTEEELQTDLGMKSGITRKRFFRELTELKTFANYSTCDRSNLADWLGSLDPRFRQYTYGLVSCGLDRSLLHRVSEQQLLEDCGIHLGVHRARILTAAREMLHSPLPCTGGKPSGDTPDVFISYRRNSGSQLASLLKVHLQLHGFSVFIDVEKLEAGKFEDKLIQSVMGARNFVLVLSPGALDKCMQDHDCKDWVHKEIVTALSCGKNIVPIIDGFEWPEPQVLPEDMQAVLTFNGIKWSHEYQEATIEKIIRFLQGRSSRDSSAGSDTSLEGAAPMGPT
Procedure: 200 μM compound was first added to a solution of 0.05 μg/ml dN-SARM1 in 50 mM Tris-HCl (pH 7.5). Half of the mixture was added to an equal volume of a solution of 0.05 μg/ml dN-SARM1 in 50 mM Tris-HCl (pH 7.5) and mixed. The drug was diluted 6 times in this manner, with the final concentrations being 200, 100, 50, 25, 12.5, 6.25, 3.125 μM, or 200, 50, 12.5, 3.125, 0.78, 0.195, 0.049 μM, respectively. The protein without inhibitors added, being used as control group, was incubated at room temperature for 10 minutes.
50 μM NAD, 50 μM PC6 as substrate and 50 μM NMN as activator were added to the dN-SARM1 protein incubated with the inhibitor and reacted for 30 minutes at room temperature. The concentration of each component was the final concentration in the reaction system.
During the reaction, PC6 fluorescence spectrum dynamics were detected by a microplate reader, wherein the excitation wavelength and emission wavelength for detection were 390 nm and 520 nm, respectively. Finally, the reaction rate was used to express the activity of the protein, and the half inhibitory concentration was calculated. The higher the reaction rate, the stronger the protein activity, and the lower the inhibitory efficiency of the compound.
The dose curve of compounds inhibiting SARM1 enzymatic activity was determined using the above method.

[1] = target: T2, SARM1 protein in iSARM1 (HEK293) cells (Homo sapiens, UniProt Q6SZW1); test: Inhibitory activity in inducible SARM1 overexpressing cell line, intracellular cADPR level; type: cell-based; conditions: activator CZ-48 100 μM, cADPR content
T2 construct: The full-length SARM1 was synthesized into the pUC57 plasmid by WZ Biosciences Inc., and PCR was performed using pUC57-SARM1 as a DNA template
T2 sequence (Q6SZW1 28-724): T1 sequence (Q6SZW1 28-724)
Procedure: In this example, the gene sequence of SARM1 was amplified using PCR, and constructed into pInducer20-neo plasmid. pInducer20-SARM1 virus was packaged in a liposome and infected HEK293 to obtain an inducible SARM1-overexpressing cell line, which was labeled as iSARM1 (HEK293). The specific preparation was as follows:
First, a 96-well culture plate was treated with 0.05 mg/ml polylysine for 5 minutes and washed once with PBS. 3×10^4 iSARM1 (HEK293) cells were plated into the 96-well plate and cultured overnight in a 37° C. and 5% incubator. The next day, the cells were added with an inhibitor with a final concentration of 50 μM, incubated in the incubator for 1.5 hours, added with activator CZ-48 with a final concentration of 100 μM, and incubated for 16 hours. Meanwhile, the cells without adding CZ-48 or without adding drug were set as control group. Finally, the intracellular cADPR level was detected to represent the activity of SARM1, and the inhibition rate of SARM1 in cells by 50 μM inhibitor was calculated.
The cADPR measurement was performed as follows. First, the cells were washed once with PBS, and added with 150 μl of pre-cooled 0.6M perchloric acid (PCA) to quickly lyse the cells and precipitate the protein. The PCA supernatant was transferred to a 1.5 ml centrifuge tube. The protein in the culture medium was dissolved again with 100 μl of 1M NaOH. The supernatant was added with 0.5 ml of organic reagent mixture (trioctylamine:chloroform=1:3) to extract PCA from water. After sufficient shaking, the mixture was centrifuged at 12,000 rpm for 10 minutes. The solution was divided into 3 layers: the upper aqueous phase, containing the small molecules of interest; the lower organic phase, in which PCA was dissolved; and a thin protein layer between the upper and lower layers. The upper layer was transferred to a new centrifuge tube, added with 1M Tris-Mg at a ratio of 1:100 (1M Tris (pH 8.0): 1M MgCl2=9:1), added with NADase at a ratio of 1:250, and treated at 37° C. overnight to remove NAD^+ from the mixed solution. After the treatment was completed, the mixed solution was filtered using Millipore's 10 K 96-well filter plate to remove NADase.
The cADPR content in the solution was determined through Cycling analysis method. The specific steps were as follows: 20 μl of the sample to be tested or the cADPR standard was taken and added to a 96-well opaque white plate. Preparation of reaction solution: 9.6 ml of PBS (pH 7.4), 200 μl of ethanol, 150 μl of 1 mg/ml AD, 10 μl of 10 mM FMN, 5 μl of 18 mg/ml Diaphorase, 10 μl of 10 mM Resazurin, and 100 μl of 1M Nam. Half of the reaction solution was divided and added with 0.2 μg/ml cyclase. The reaction solution without adding cyclase was used as control experiment. Each sample was divided into two groups, 3 replicates in each group. The reaction solutions containing or not containing cyclase were added to each group to perform the reaction. The reaction kinetic curve within 30 minutes was recorded (Ex:Em=544/599). The average slope of the reaction was calculated. Conversion was performed according to cADPR standard to obtain the accurate cADPR content. A curve of intracellular cADPR content vs corresponding inhibitor concentration was plotted. The half inhibitory concentration of the inhibitor was calculated.

SMILES | IC50 (dN-SARM1 protein) [µM] | EC50 [1] [µM]
CN(C(=O)OC(C)(C)C)c1ccc2ncc(-c3cccc(NC(=O)c4ccccc4)c3)n2c1 [Compound 249] | 1 to 10 | < 1
COC(=O)c1cccc(-c2cnc3ccc(N(C)C(=O)C(C)(C)C)cn23)c1 [Compound 301] | < 1 | 1 to 10
Cc1ncsc1-c1ccc(CNC(=O)[C@@H]2C[C@@H](O)CN2C(=O)[C@@H](NC(=O)COCCOCC(=O)Nc2cccc(-c3cnc4ccc(N(C)C(=O)OC(C)(C)C)cn34)c2)C(C)(C)C)cc1 [Compound 113] | 1 to 10 | 1 to 10
CN(C(=O)OC(C)(C)C)c1ccc2ncc(-c3cccc(NC(=O)[C@@H]4CCOC4)c3)n2c1 [Compound 238] | < 1 | < 1
CN(C(=O)OC(C)(C)C)c1ccc2ncc(-c3cccc4ncsc34)n2c1 [Compound 167] | < 1 | < 1
Nc1cccc(/C=C/CNc2ccc3ncc(-c4ccccc4)n3c2)c1 [Compound 220] | 1 to 10 | 1 to 10
Cc1ncsc1-c1ccc(CNC(=O)[C@@H]2C[C@@H](O)CN2C(=O)[C@@H](NC(=O)COCCOCCOCC(=O)Nc2cccc(-c3cnc4ccc(N(C)C(=O)OC(C)(C)C)cn34)c2)C(C)(C)C)cc1 [Compound 119, Tert-butyl (3-(3-((S)-13-((2S,4R)-4-hydroxy-2-((4-(4-methylthiazol-5-yl)benzyl)carbamoyl)pyrrolidin-1-carbonyl)-14,14-dimethyl-11-oxo-3,6,9-trioxa-12-azaglutaramide)phenyl)imidazo[1,2-a]pyridin-6-yl)(methyl)carbamate] | < 1 | 1 to 10
CN(C(=O)OC(C)(C)C)c1ccc2ncc(-c3cccc4c3C(=O)NC4)n2c1 [Compound 164] | < 1 | 1 to 10
CNc1ccc2ncc(-c3cc4cc[nH]c4cn3)n2c1 [Compound 162, N-methyl-3-(1H-pyrrolo[2,3-c]pyridin-5-yl)imidazo[1,2-a]pyridin-6-amine] | < 1 | < 1
CN(C(=O)OC(C)(C)C)c1ccc2ncc(-c3cccc(C(=O)NC[C@@H]4CCO4)c3)n2c1 [Compound 246] | 1 to 10 | 1 to 10
CN(C(=O)OC(C)(C)C)c1ccc2ncc(-c3cccc(NC(=O)COCCOCc4ccccc4)c3)n2c1 [Compound 244] | 1 to 10 | < 1
c1ccc(-c2cnc3ccc(NC4CCOC4)cn23)cc1 (stereo not drawn) [Compound 87, 3-phenyl-N-(tetrahydrofuran-3-yl)imidazo[1,2-a]pyridin-6-amine] | < 1 | 1 to 10
CN(C(=O)OC(C)(C)C)c1ccc2ncc(-c3cccc(OCCOC4CCOC4)c3)n2c1 (stereo not drawn) [Compound 155] |  | < 1
CC(C)(C)OC(=O)N(C/C=C/c1cccc(NC(=O)C2CCOCC2)c1)c1ccc2ncc(-c3ccccc3)n2c1 [Compound 221] | 1 to 10 | < 1
CN(C(=O)OC(C)(C)C)c1ccc2ncc(-c3cccc4cn[nH]c34)n2c1 [Compound 259] | < 1 | 1 to 10
O=C(Nc1cccc(-c2cnc3ccc(N4CCOCC4)cn23)c1)[C@H]1C[C@H](N2CCCCC2)C1 [Compound 227] | 1 to 10 | < 1

SMILES | IC50 (dN-SARM1 protein) [µM] | EC50 [1] [µM]
CN(C(=O)OC(C)(C)C)c1ccc2ncc(-c3cccs3)n2c1 [Compound 12] | 1 to 10 | < 1
Cc1ccccc1-c1cnc2ccc(N(C)C(=O)OC(C)(C)C)cn12 [Compound 10] | 1 to 10 | < 1
O=C1CCCN1c1ccc2ncc(-c3cccc4[nH]ccc34)n2c1 [Compound 205] | 1 to 10 | < 1
CC(C)(C)OC(=O)N(C/C=C/c1cccc(N)c1)c1ccc2ncc(-c3cccc(N)c3)n2c1 [Compound 212, tert-butyl (E)-(3-(3-aminophenyl)allyl)(3-(3-aminophenyl)imidazo[1,2-a]pyridin-6-yl)carbamate] | 1 to 10 | < 1
O=C(Nc1cccc(-c2cnc3ccc(NC/C=C/c4ccccc4)cn23)c1)C1CCOCC1 [Compound 215] |  | < 1
Cc1ncsc1-c1ccc(CNC(=O)[C@@H]2C[C@@H](O)CN2C(=O)[C@@H](NC(=O)COCCOCC(=O)N(C)c2ccc3ncc(-c4ccccc4Cl)n3c2)C(C)(C)C)cc1 [Compound 117, (2S,4R)-1-((S)-12-(tert-butyl)-2-(3-(2-chlorophenyl)imidazo[1,2-a]pyridin-6-yl)-3,10-dioxo-5,8-dioxa-2,11-diazahexadecane-13-acyl)-4-hydroxy-N-(4-(4-methylthiazol-5-yl)benzyl)pyrrolidin-2-carboxamide] | 1 to 10 | 
CN(C(=O)OC(C)(C)C)c1ccc2ncc(-c3ccc4[nH]ccc4c3)n2c1 [Compound 199] | 1 to 10 | 
CNc1ccc2ncc(-c3ccc4c(c3)CNC4=O)n2c1 [Compound 266] | 1 to 10 | 
CN(C(=O)OC(C)(C)C)c1ccc2ncc(-c3ccccc3C(=O)NC3CCOCC3)n2c1 [Compound 175] | < 1 | 
CN(C(=O)OC(C)(C)C)c1ccc2ncc(-c3cncnc3)n2c1 [Compound 283] | 1 to 10 | 
CNc1ccc2ncc(-c3cccc(NC(=O)COCc4ccccc4)c3)n2c1 [Compound 250] | 1 to 10 | 
CN1Cc2c(cccc2-c2cnc3ccc(N(C)C(=O)OC(C)(C)C)cn23)C1=O [Compound 286] | 1 to 10 | 
CN(C(=O)C(C)(C)C)c1ccc2ncc(-c3cccc(N)c3)n2c1 [Compound 302] | 1 to 10 | 
CNc1ccc2ncc(-c3ccc4[nH]ccc4n3)n2c1 [Compound 197] | 1 to 10 | 
CN(C(=O)OC(C)(C)C)c1ccc2ncc(C3CCCc4ncccc43)n2c1 (stereo not drawn) [Compound 311] | < 1 | 
CN(C(=O)OC(C)(C)C)c1ccc2ncc(-c3ccc4ccncc4c3)n2c1 [Compound 270] | < 1 | 
